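These data come from cells grown in 96-well plates and exposed to compound for 48 hours at five concentrations. Abbreviation: GI50, concentration required for 50% inhibition of growth. The concentration for full growth arrest is given as TGI.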
Experiments:
Experiment in all cases: NCI tumour cell line growth inhibition, 48 h
786-0 renal = test system: 786-0 renal
A498 renal = test system: A498 renal
A549 NSCLC = test system: A549 NSCLC
ACHN renal = test system: ACHN renal
BT-549 breast = test system: BT-549 breast
CAKI-1 renal = test system: CAKI-1 renal
CCRF-CEM leukemia = test system: CCRF-CEM leukemia
DU-145 prostate = test system: DU-145 prostate
EKVX NSCLC = test system: EKVX NSCLC
HCC-2998 colon = test system: HCC-2998 colon
HCT-116 colon = test system: HCT-116 colon
HCT-15 colon = test system: HCT-15 colon
HL-60(TB) leukemia = test system: HL-60(TB) leukemia
HOP-62 NSCLC = test system: HOP-62 NSCLC
HOP-92 NSCLC = test system: HOP-92 NSCLC
HS 578T breast = test system: HS 578T breast
HT29 colon = test system: HT29 colon
IGROV1 ovarian = test system: IGROV1 ovarian
KM12 colon = test system: KM12 colon
LOX IMVI melanoma = test system: LOX IMVI melanoma
M14 melanoma = test system: M14 melanoma
MALME-3M melanoma = test system: MALME-3M melanoma
MCF7 breast = test system: MCF7 breast
MDA-MB-231 breast = test system: MDA-MB-231 breast
MDA-MB-435 = test system: MDA-MB-435
MOLT-4 leukemia = test system: MOLT-4 leukemia
NCI-H226 lung = test system: NCI-H226 lung
NCI-H23 lung = test system: NCI-H23 lung
NCI-H460 lung = test system: NCI-H460 lung
NCI-H522 lung = test system: NCI-H522 lung
NCI/ADR-RES ovarian = test system: NCI/ADR-RES ovarian
OVCAR-3 ovarian = test system: OVCAR-3 ovarian
OVCAR-4 ovarian = test system: OVCAR-4 ovarian
OVCAR-5 ovarian = test system: OVCAR-5 ovarian
OVCAR-8 ovarian = test system: OVCAR-8 ovarian
PC-3 prostate = test system: PC-3 prostate
RPMI-8226 leukemia = test system: RPMI-8226 leukemia
RXF 393 renal = test system: RXF 393 renal
SF-268 CNS = test system: SF-268 CNS
SF-539 CNS = test system: SF-539 CNS
SK-MEL-2 melanoma = test system: SK-MEL-2 melanoma
SK-MEL-28 melanoma = test system: SK-MEL-28 melanoma
SK-MEL-5 melanoma = test system: SK-MEL-5 melanoma
SK-OV-3 ovarian = test system: SK-OV-3 ovarian
SN12C renal = test system: SN12C renal
SNB-19 CNS = test system: SNB-19 CNS
SNB-75 CNS = test system: SNB-75 CNS
SR leukemia = test system: SR leukemia
SW-620 colon = test system: SW-620 colon
T-47D breast = test system: T-47D breast
TK-10 renal = test system: TK-10 renal
U251 CNS = test system: U251 CNS
UACC-257 melanoma = test system: UACC-257 melanoma
UACC-62 melanoma = test system: UACC-62 melanoma
UO-31 renal = test system: UO-31 renal
COLO 205 colon = test system: COLO 205 colon
K-562 leukemia = test system: K-562 leukemia
SF-295 CNS = test system: SF-295 CNS

## Clc1ccc(C(Cn2ccnc2)OCc2ccsc2Cl)c(Cl)c1 (stereo not drawn)
786-0 renal
  GI50: 2.97 µM
  TGI: 9.89 µM
A498 renal
  GI50: 2.33 µM
  TGI: 13.9 µM
A549 NSCLC
  GI50: 3.12 µM
  TGI: 14.2 µM
ACHN renal
  GI50: 4.17 µM
  TGI: 15 µM
BT-549 breast
  GI50: 2.92 µM
  TGI: 9.01 µM
CAKI-1 renal
  GI50: 2.05 µM
  TGI: 7.36 µM
CCRF-CEM leukemia
  GI50: 2.4 µM
  TGI: 7.74 µM
DU-145 prostate
  GI50: 7.69 µM
  TGI: 20.6 µM
EKVX NSCLC
  GI50: 2510 nM
  TGI: 13.4 µM
HCC-2998 colon
  GI50: 2.73 µM
  TGI: 9.46 µM
HCT-116 colon
  GI50: 2.84 µM
  TGI: 10.6 µM
HCT-15 colon
  GI50: 3.95 µM
  TGI: 14.2 µM
HL-60(TB) leukemia
  GI50: 1.82 µM
  TGI: 4.96 µM
HOP-62 NSCLC
  GI50: 4.92 µM
  TGI: 16.9 µM
HOP-92 NSCLC
  GI50: 1600 nM
  TGI: 5.93 µM
HS 578T breast
  GI50: 4.44 µM
  TGI: > 100 µM
HT29 colon
  GI50: 2.73 µM
  TGI: 9.34 µM
IGROV1 ovarian
  GI50: 3.15 µM
  TGI: 14 µM
KM12 colon
  GI50: 3.01 µM
  TGI: 13.5 µM
LOX IMVI melanoma
  GI50: 2.51 µM
M14 melanoma
  GI50: 2.72 µM
  TGI: 8.27 µM
MALME-3M melanoma
  GI50: 2.62 µM
  TGI: 8.62 µM
MCF7 breast
  GI50: 3.24 µM
  TGI: 14.4 µM
MDA-MB-231 breast
  GI50: 4.34 µM
  TGI: 18.6 µM
MDA-MB-435
  GI50: 2.16 µM
  TGI: 5.59 µM
MOLT-4 leukemia
  GI50: 2.4 µM
  TGI: 10.5 µM
NCI-H226 lung
  GI50: 5.62 µM
  TGI: 30.7 µM
NCI-H23 lung
  GI50: 2.18 µM
  TGI: 8.77 µM
NCI-H460 lung
  GI50: 2.84 µM
  TGI: 10.1 µM
NCI-H522 lung
  GI50: 2.7 µM
  TGI: 9.52 µM
NCI/ADR-RES ovarian
  GI50: 1.91 µM
  TGI: 5.71 µM
OVCAR-3 ovarian
  GI50: 5.11 µM
  TGI: 16.4 µM
OVCAR-4 ovarian
  GI50: 2.34 µM
  TGI: 12.7 µM
OVCAR-5 ovarian
  GI50: 4.91 µM
  TGI: 18.2 µM
OVCAR-8 ovarian
  GI50: 3.05 µM
  TGI: 14.3 µM
PC-3 prostate
  GI50: 2.07 µM
  TGI: 7.62 µM
RPMI-8226 leukemia
  GI50: 1.81 µM
  TGI: 5.53 µM
RXF 393 renal
  GI50: 3.17 µM
  TGI: 12.8 µM
SF-268 CNS
  GI50: 4.73 µM
  TGI: 30 µM
SF-539 CNS
  GI50: 4.23 µM
  TGI: 14.9 µM
SK-MEL-2 melanoma
  GI50: 2.4 µM
  TGI: 5.67 µM
SK-MEL-28 melanoma
  GI50: 4.18 µM
  TGI: 15.3 µM
SK-MEL-5 melanoma
  GI50: 1910 nM
  TGI: 4.21 µM
SK-OV-3 ovarian
  GI50: 5.08 µM
  TGI: 16.8 µM
SN12C renal
  GI50: 4.74 µM
  TGI: 18.7 µM
SNB-19 CNS
  GI50: 5.41 µM
  TGI: 20.6 µM
SNB-75 CNS
  GI50: 2320 nM
  TGI: 8.22 µM
SR leukemia
  GI50: 2.28 µM
  TGI: 7.62 µM
SW-620 colon
  GI50: 3.27 µM
  TGI: 12.3 µM
T-47D breast
  GI50: 4.04 µM
  TGI: 16.9 µM
TK-10 renal
  GI50: 3.31 µM
  TGI: 11.2 µM
U251 CNS
  GI50: 2.79 µM
  TGI: 11.2 µM
UACC-257 melanoma
  GI50: 3.01 µM
  TGI: 11.8 µM
UACC-62 melanoma
  GI50: 3.72 µM
  TGI: 14.3 µM
UO-31 renal
  GI50: 2.81 µM
  TGI: 11.1 µM

## COc1cccc(C2=C(c3cn(C)c4ccc(Cl)cc34)C(=O)NC2=O)c1
786-0 renal
  GI50: 6.5 µM
  TGI: > 18.9 µM
A498 renal
  GI50: 4.03 µM
  TGI: 12.5 µM
A549 NSCLC
  GI50: 6.84 µM
  TGI: > 25 µM
ACHN renal
  GI50: 6.65 µM
  TGI: > 19.6 µM
BT-549 breast
  GI50: 7.01 µM
  TGI: > 19 µM
CAKI-1 renal
  GI50: 4.87 µM
  TGI: 16.8 µM
CCRF-CEM leukemia
  GI50: 4.39 µM
  TGI: 15.7 µM
COLO 205 colon
  GI50: 3.92 µM
  TGI: 8.57 µM
DU-145 prostate
  GI50: 10.9 µM
  TGI: > 22.1 µM
HCC-2998 colon
  GI50: 9.02 µM
  TGI: > 23 µM
HCT-116 colon
  GI50: 3.8 µM
  TGI: > 13.7 µM
HCT-15 colon
  GI50: 6.4 µM
  TGI: > 25 µM
HL-60(TB) leukemia
  GI50: 6.84 µM
  TGI: 14.6 µM
HOP-62 NSCLC
  GI50: 7.22 µM
  TGI: 21.4 µM
HOP-92 NSCLC
  GI50: > 25000 nM
  TGI: > 25 µM
HS 578T breast
  GI50: 6.76 µM
  TGI: > 25 µM
HT29 colon
  GI50: 4.14 µM
  TGI: > 24.1 µM
IGROV1 ovarian
  GI50: 7.62 µM
  TGI: > 17.5 µM
K-562 leukemia
  GI50: 6.54 µM
  TGI: > 19.8 µM
KM12 colon
  GI50: 4.95 µM
  TGI: 11.4 µM
LOX IMVI melanoma
  GI50: 4.92 µM
  TGI: > 16.1 µM
M14 melanoma
  GI50: 10.3 µM
  TGI: > 25 µM
MALME-3M melanoma
  GI50: 13.9 µM
  TGI: > 20 µM
MCF7 breast
  GI50: 2.85 µM
  TGI: > 25 µM
MDA-MB-231 breast
  GI50: 8.3 µM
  TGI: > 20.6 µM
MDA-MB-435
  GI50: 6.48 µM
  TGI: > 16.4 µM
MOLT-4 leukemia
  GI50: 5.14 µM
  TGI: > 18.8 µM
NCI-H226 lung
  GI50: 5.17 µM
  TGI: 19.1 µM
NCI-H23 lung
  GI50: 7.15 µM
  TGI: > 19.1 µM
NCI-H460 lung
  GI50: 7.57 µM
  TGI: > 19.1 µM
NCI-H522 lung
  GI50: 5.48 µM
  TGI: > 17.9 µM
NCI/ADR-RES ovarian
  GI50: 6.13 µM
  TGI: 19.8 µM
OVCAR-3 ovarian
  GI50: 7.47 µM
  TGI: > 17.2 µM
OVCAR-4 ovarian
  GI50: 6.96 µM
  TGI: > 25 µM
OVCAR-5 ovarian
  GI50: 15.3 µM
  TGI: > 25 µM
OVCAR-8 ovarian
  GI50: 6.61 µM
  TGI: > 20.3 µM
PC-3 prostate
  GI50: 6.16 µM
  TGI: > 19.6 µM
RPMI-8226 leukemia
  GI50: 5.9 µM
  TGI: > 20.4 µM
RXF 393 renal
  GI50: 3.66 µM
  TGI: 8.33 µM
SF-268 CNS
  GI50: 11.5 µM
  TGI: > 25 µM
SF-295 CNS
  GI50: 5.28 µM
  TGI: > 15.1 µM
SF-539 CNS
  GI50: 6.06 µM
  TGI: > 15.9 µM
SK-MEL-2 melanoma
  GI50: 7.24 µM
  TGI: > 18 µM
SK-MEL-28 melanoma
  GI50: 7.87 µM
  TGI: > 20.5 µM
SK-MEL-5 melanoma
  GI50: 3630 nM
  TGI: 8.35 µM
SK-OV-3 ovarian
  GI50: 7.29 µM
  TGI: > 22 µM
SN12C renal
  GI50: 4.96 µM
  TGI: 14.2 µM
SNB-19 CNS
  GI50: 13.4 µM
  TGI: > 25 µM
SNB-75 CNS
  GI50: 3100 nM
  TGI: > 25 µM
SR leukemia
  GI50: 5.77 µM
  TGI: > 18.6 µM
SW-620 colon
  GI50: 8.79 µM
  TGI: > 25 µM
T-47D breast
  GI50: 4.19 µM
  TGI: 17.4 µM
TK-10 renal
  GI50: 10.4 µM
  TGI: > 23.8 µM
U251 CNS
  GI50: 5.94 µM
  TGI: > 16.8 µM
UACC-257 melanoma
  GI50: 9.86 µM
  TGI: > 21.5 µM
UACC-62 melanoma
  GI50: 5.67 µM
  TGI: 12.8 µM
UO-31 renal
  GI50: 5.07 µM
  TGI: > 17.4 µM

Source: PubChem BioAssay (NCI)
